Values of other authors as cited in publication PMC4386841 (Journal of the American Chemical Society, 2015).
Where two headings read alike, the source gives them in different places. Each block holds one molecule with its values, some of them ahead of it.

Columns and labels:
[1] = test system: MIF

Ki ([1]; dopachrome assay): 0.038 µM
Structure (SMILES): O=c1c(-c2ccc(O)c(O)c2)coc2cc(O)ccc12 [Orita-13, 3-(3,4-dihydroxyphenyl)-7-hydroxy-4H-chromen-4-one]

Aqueous solubility, literature value: 5.9 µg/mL
Structure (SMILES): CN1C(C(=O)Nc2ccccn2)=C(O)c2ccccc2S1(=O)=O [Piroxicam]
